# Measurements from article PMC10174618, “Monoterpenoid aryl hydrocarbon receptor allosteric antagonists protect against ultraviolet skin damage in female mice” (Nature Communications, 2023).
# Tests used:
# Test in all cases: biochemical
# Set-up in all cases: KINOMEscan scanMAX active site-directed competition binding assay, percent of control, 468 kinases
# Conditions in all cases: competition binding, percent of control
# EPHA1 = EPHA1 (Homo sapiens, UniProt P21709)
# Description: (§1) The KINOMEscan^TM screening platform (scanMAX assay) employs a proprietary active site-directed competition binding assay that quantitatively measures the interactions between test compounds (here 100 μM S-carvone) and 468 human protein kinases. The assay was performed at Eurofins DiscoverX Corp. (Fremont, CA, USA). Blocking protein kinase C (PKC) activity was reported to inhibit the transcription of CYP1A1 but to exert no effect on the nuclear translocation of AhR[26], which was also the case here with carvones. Therefore, we tested whether carvones inhibit PKC catalytic activity. […] We also evaluated the interaction between 100 μM S-carvone and 468 human protein kinases, employing KINOMEscan^TM (scanMAX assay), a proprietary active site-directed competition binding assay. The minimal inhibitory threshold used by the screening platform KINOMEscan^TM is 35% of the control kinase activity. Among 468 kinases tested, 467 were above the 35% cutoff. Tyrosine kinase 2 TK2 (JH2 domain pseudokinase) activity was inhibited to 27% of the control activity, but this kinase is not relevant to the regulation of transcription activity (Fig. 5B; Figure S9). Overall, we excluded the possibility that the effects of carvones on AhR signaling are caused indirectly by the inhibition of the human kinome, particularly PKC.
# MKK7 = molecular target: T1, MKK7 (Homo sapiens, UniProt O14733)
# T1 construct: gene MAP2K7
# T1 sequence (O14733 whole entry): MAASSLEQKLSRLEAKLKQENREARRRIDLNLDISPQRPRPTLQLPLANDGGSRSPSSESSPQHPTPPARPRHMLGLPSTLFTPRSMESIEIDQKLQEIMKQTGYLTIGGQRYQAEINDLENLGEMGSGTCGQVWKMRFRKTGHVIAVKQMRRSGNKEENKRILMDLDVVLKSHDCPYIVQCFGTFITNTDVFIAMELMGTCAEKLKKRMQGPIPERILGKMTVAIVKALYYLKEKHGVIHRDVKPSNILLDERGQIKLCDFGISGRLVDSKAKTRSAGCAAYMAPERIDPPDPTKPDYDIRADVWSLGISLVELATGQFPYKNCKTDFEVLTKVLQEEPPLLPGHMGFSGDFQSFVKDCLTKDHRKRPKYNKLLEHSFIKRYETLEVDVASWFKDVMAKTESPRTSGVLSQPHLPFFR
# Description: as §1
# STK35 = STK35 (Homo sapiens, UniProt Q8TDR2)
# STK35, sequence (Q8TDR2 whole entry): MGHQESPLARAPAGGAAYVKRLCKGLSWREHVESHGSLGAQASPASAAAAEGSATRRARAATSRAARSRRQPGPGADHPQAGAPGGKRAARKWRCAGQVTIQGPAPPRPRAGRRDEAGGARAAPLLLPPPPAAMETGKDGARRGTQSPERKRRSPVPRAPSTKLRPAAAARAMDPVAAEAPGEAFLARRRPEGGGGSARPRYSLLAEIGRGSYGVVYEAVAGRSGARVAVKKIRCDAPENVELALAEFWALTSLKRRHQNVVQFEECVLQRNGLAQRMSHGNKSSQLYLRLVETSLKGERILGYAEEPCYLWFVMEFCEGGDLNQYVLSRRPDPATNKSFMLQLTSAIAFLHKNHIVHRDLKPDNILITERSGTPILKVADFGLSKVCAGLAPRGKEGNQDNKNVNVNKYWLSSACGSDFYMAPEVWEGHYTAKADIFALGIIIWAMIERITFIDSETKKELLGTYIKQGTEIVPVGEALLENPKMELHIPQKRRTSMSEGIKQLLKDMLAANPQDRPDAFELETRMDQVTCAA
# Description: as §1
# CSNK1G2 = CSNK1G2 (Homo sapiens, UniProt P78368)
# CSNK1G2, sequence (P78368 whole entry): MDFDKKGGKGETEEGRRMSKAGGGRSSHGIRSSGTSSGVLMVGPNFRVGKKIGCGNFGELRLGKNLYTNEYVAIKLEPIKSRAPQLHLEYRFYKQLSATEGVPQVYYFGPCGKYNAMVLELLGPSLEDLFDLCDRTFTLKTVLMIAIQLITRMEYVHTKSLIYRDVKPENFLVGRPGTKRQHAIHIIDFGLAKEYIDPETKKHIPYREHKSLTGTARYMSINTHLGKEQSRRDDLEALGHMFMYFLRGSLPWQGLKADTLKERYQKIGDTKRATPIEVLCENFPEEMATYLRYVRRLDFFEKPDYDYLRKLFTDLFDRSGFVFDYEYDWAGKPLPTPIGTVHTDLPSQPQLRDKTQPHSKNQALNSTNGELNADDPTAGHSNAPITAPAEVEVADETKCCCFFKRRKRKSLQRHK
# Description: as §1
# [1] = molecular target: T2, TYK2(JH1domain-catalytic) (Homo sapiens, UniProt P29597)
# T2 construct: JH1domain-catalytic
# T2 sequence (P29597 whole entry): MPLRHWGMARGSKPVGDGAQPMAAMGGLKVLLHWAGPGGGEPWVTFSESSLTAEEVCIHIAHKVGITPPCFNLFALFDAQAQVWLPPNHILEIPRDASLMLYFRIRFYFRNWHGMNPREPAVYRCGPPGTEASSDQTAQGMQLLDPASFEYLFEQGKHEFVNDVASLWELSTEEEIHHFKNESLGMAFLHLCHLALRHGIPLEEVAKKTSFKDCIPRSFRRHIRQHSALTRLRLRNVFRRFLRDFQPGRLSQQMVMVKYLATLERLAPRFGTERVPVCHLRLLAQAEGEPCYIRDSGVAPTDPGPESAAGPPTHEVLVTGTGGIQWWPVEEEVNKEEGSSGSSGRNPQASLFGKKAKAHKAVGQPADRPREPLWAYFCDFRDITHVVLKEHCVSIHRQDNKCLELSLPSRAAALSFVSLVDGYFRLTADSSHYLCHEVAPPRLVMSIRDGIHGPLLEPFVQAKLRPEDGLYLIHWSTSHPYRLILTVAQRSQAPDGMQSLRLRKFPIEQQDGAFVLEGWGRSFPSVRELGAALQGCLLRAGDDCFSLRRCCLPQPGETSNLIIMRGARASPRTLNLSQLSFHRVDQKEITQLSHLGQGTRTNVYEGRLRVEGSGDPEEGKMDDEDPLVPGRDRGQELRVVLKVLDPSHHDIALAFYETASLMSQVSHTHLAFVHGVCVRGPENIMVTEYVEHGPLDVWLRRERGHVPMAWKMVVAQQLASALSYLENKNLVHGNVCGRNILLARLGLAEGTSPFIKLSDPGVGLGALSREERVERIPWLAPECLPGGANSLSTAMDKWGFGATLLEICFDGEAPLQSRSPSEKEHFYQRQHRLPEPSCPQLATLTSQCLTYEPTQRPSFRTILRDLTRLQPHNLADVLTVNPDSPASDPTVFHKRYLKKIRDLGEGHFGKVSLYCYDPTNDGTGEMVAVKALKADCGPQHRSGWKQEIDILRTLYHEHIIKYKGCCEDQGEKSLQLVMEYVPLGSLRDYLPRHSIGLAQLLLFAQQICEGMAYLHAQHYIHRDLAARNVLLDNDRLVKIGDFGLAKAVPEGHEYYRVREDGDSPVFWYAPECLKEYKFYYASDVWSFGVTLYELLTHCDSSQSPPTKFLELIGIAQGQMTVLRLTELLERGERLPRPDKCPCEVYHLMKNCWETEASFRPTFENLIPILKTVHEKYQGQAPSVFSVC
# Description: as §1
# EPHA3 = EPHA3 (Homo sapiens, UniProt P29320)
# Description: as §1
# NDR1 = molecular target: T3, NDR1 (Homo sapiens, UniProt Q15208)
# T3 construct: gene STK38
# T3 sequence (Q15208 whole entry): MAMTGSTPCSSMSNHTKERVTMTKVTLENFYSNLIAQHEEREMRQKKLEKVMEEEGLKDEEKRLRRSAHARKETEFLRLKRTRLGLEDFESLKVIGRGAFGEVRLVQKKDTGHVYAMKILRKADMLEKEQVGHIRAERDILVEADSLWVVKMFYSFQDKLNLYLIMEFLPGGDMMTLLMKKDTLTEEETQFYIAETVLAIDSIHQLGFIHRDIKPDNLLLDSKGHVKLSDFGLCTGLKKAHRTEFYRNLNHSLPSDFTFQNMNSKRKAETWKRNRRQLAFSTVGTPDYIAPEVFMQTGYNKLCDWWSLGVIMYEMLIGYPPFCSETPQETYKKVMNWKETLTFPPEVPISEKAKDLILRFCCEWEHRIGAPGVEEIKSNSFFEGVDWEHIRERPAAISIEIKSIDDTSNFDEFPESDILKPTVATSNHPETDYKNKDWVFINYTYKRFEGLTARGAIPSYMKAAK
# Description: as §1
# [2] = molecular target: T4, ABL1(Q252H)-nonphosphorylated (Homo sapiens, UniProt P00519, Q252H)
# T4 construct: nonphosphorylated
# Description: as §1
# WNK1 = WNK1 (Homo sapiens, UniProt Q9H4A3)
# Description: as §1
# EGFR(E746-A750del) = EGFR(E746-A750del) (Homo sapiens, UniProt P00533, DEL746-750)
# Description: as §1
# LATS1 = LATS1 (Homo sapiens, UniProt O95835)
# Description: as §1
# NEK2 = NEK2 (Homo sapiens, UniProt P51955)
# Description: as §1
# ABL1-nonphosphorylated = molecular target: T5, ABL1-nonphosphorylated (Homo sapiens, UniProt P00519)
# T5 construct: nonphosphorylated
# Description: as §1
# KIT-autoinhibited = KIT-autoinhibited (Homo sapiens, UniProt P10721)
# Description: as §1
# ERK8 = molecular target: T6, ERK8 (Homo sapiens, UniProt Q8TD08)
# T6 construct: gene MAPK15
# Description: as §1
# RIOK2 = RIOK2 (Homo sapiens, UniProt Q9BVS4)
# RIOK2, sequence (Q9BVS4 whole entry): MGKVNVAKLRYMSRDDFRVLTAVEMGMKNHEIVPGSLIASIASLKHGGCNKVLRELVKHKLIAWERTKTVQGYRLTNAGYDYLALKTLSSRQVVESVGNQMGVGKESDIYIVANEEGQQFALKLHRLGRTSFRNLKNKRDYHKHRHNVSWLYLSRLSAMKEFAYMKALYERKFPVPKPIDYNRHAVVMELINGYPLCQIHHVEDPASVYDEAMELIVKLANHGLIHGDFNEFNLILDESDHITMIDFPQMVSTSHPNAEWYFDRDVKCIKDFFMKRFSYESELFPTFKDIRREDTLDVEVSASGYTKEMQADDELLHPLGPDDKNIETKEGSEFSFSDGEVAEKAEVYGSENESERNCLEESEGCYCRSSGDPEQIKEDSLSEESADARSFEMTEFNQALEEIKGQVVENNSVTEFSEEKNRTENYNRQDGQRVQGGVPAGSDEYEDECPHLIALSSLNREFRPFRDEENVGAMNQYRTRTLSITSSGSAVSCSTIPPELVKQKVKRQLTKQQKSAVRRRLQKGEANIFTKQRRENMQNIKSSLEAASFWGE
# Description: as §1
# PIP5K1A = PIP5K1A (Homo sapiens, UniProt Q99755)
# PIP5K1A, sequence (Q99755 whole entry): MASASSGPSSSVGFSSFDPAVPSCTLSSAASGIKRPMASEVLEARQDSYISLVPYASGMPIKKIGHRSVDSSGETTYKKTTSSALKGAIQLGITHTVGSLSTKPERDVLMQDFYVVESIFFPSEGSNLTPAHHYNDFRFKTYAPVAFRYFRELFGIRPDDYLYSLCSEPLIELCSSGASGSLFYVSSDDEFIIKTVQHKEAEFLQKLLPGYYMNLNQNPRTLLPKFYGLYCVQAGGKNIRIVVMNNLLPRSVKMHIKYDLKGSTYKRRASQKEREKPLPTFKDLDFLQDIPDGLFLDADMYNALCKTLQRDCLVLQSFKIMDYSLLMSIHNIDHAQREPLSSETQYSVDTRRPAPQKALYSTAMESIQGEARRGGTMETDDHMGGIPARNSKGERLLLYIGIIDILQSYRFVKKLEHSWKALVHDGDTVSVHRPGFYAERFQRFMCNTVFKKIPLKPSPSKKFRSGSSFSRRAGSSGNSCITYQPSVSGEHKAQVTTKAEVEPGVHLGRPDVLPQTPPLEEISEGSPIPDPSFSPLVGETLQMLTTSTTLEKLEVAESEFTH
# Description: as §1
# CAMK4 = CAMK4 (Homo sapiens, UniProt Q16566)
# Description: as §1
# KIT(V559D,V654A) = KIT(V559D,V654A) (Homo sapiens, UniProt P10721, V559D/V654A)
# Description: as §1
# DAPK3 = DAPK3 (Homo sapiens, UniProt O43293)
# Description: as §1
# IKK-beta = molecular target: T7, IKK-beta (Homo sapiens, UniProt O14920)
# T7 construct: gene IKBKB
# T7 sequence (O14920 whole entry): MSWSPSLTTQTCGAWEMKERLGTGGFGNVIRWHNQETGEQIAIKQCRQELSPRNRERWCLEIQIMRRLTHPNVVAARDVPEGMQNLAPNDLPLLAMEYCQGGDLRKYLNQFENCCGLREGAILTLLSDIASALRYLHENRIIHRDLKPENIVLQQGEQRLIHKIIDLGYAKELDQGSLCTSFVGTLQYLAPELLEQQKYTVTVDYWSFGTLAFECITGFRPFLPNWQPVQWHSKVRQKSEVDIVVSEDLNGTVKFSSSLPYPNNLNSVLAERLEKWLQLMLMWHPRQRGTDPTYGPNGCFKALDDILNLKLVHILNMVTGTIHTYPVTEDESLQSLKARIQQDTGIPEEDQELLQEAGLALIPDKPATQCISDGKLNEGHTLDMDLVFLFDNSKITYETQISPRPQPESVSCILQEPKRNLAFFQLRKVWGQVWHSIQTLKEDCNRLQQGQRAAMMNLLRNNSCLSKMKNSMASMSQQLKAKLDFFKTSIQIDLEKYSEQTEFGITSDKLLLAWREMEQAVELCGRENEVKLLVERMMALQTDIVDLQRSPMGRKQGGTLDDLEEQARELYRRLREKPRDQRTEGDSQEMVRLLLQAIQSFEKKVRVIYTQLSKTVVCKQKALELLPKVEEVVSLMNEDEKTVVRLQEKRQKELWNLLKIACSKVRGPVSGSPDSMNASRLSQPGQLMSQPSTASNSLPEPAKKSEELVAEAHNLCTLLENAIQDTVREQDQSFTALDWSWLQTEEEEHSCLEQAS
# Description: as §1
smiles,measurement,setting,value
C=C(C)[C@H]1CC=C(C)C(=O)C1 [S-carvone],remaining binding at 100 µM,EPHA1,82%
same,remaining binding at 100 µM,MKK7,67%
same,remaining binding at 100 µM,STK35,92%
same,remaining binding at 100 µM,CSNK1G2,87%
same,remaining binding at 100 µM,[1],58%
same,remaining binding at 100 µM,EPHA3,100%
same,remaining binding at 100 µM,NDR1,77%
same,remaining binding at 100 µM,[2],66%
same,remaining binding at 100 µM,WNK1,86%
same,remaining binding at 100 µM,EGFR(E746-A750del),62%
same,remaining binding at 100 µM,LATS1,91%
same,remaining binding at 100 µM,NEK2,100%
same,remaining binding at 100 µM,ABL1-nonphosphorylated,76%
same,remaining binding at 100 µM,KIT-autoinhibited,74%
same,remaining binding at 100 µM,ERK8,91%
same,remaining binding at 100 µM,RIOK2,90%
same,remaining binding at 100 µM,PIP5K1A,98%
same,remaining binding at 100 µM,CAMK4,70%
same,remaining binding at 100 µM,"KIT(V559D,V654A)",80%
same,remaining binding at 100 µM,DAPK3,84%
same,remaining binding at 100 µM,IKK-beta,72%
